# Experimental data reported in patent US5747545A, “Method of preventing NMDA receptor complex-mediated Neuronal damage” (priority 1995, dated 1998).
# Tested on: NMDA receptor (rat cortical neurons in culture)
# Test: Digital fura-2 imaging of NMDA-evoked intracellular [Ca2+] in cultured cortical neurons
# Assay type: cell-based, rat (Sprague-Dawley)
# Conditions: 50 μM NMDA; Examples 1-2; NTG 100 μM in Example 2
# Description: The concentration of intracellular free Ca^2+ ([Ca^2+ ]i) is measured in neonatal cortical neurons by digital imaging microscopy with the Ca^2+ sensitive fluorescent dye fura 2, as follows. The same cortical neuronal cultures as described above are used. During Ca^2+ measurements, unless otherwise stated the fluid bathing the neurons consists of Hanks' balanced salts: 137.6 mM NaCl, 1 mM NaHCO3, 0.34 mM Na2 HPO4, 0.44 mM KH2 PO4, 5.36 mM KCl, 1.25 mM CaCl2, 0.5 mM MgSO4, 0.5 mM MgCl2, 5 mM Hepes NaOH, 22.2 mM glucose, and sometimes with phenol red indicator (0.001% v/v); pH 7.2. NMDA (in the absence Mg^++), glutamate, and other substances are usually applied to the neurons by pressure ejection after dilution in this bath solution. Neuronal [Ca^2+ ]i is analyzed with fura 2-acetoxy-methyl ester (AM) as described [Grynkiewicz, et al., J. Biol. Chem. 260:3440 (1985); Williams et al., Nature 318:558 (1985); Connor et al., J. Neurosci. 7:1384 (1987); Connor et al., Science 240:649 (1988); Cohan et al., J. Neurosci. 7:3588 (1987); Mattson, et al., ibid, 9:3728 (1989)]. After adding Eagle's minimum essential medium containing 10 μM fura 2-AM to the neurons, the cultures are incubated at 37° C. in a 5% CO2 /95% air humidified chamber and then rinsed. The dye is loaded, trapped, and deesterified within 1 hour, as determined by stable fluorescence ratios and the effect of the Ca^2+ ionophore ionomycin on [Ca^2+ ]i is measured. During Ca^2+ imaging, the cells are incubated in a solution of Hepes-buffered saline with Hanks' balanced salts. The [Ca^2+ ]i is calculated from ratio images that are obtained by measuring the fluorescence at 500 nm that is excited by 350 and 380 nm light with a DAGE MTI 66 SIT or QUANTEX QX-100 Intensified CCD camera mounted on a Zeiss Axiovert 35 microscope. Exposure time for each picture is 500 ms. Analysis is performed with a Quantex (Sunnyvale, Calif.) QX7-210 image-processing system. Since cells are exposed to ultraviolet light only during data collection (generally less than a total of 20 s per cell), bleaching of fura 2 is minimal.
# In this experiment, the effect of NTG on intracellular [Ca^++ ] increases induced by NMDA were followed using digital [Ca^++ ] imaging techniques, based on the dye fura-2.
# Specifically, the model for NMDA-mediated neurotoxicity involves exposure of cultured rat cortical neurons to NMDA in the presence of glycine (a co-agonist).
# Cortical cultures were derived from embryonic (fetal day 15 or 16) Sprague-Dawley rats as described previously (Dichter, 1978; Rosenberg and Aizenman, 1989). […]
smiles,measurement,value
"O=[N+]([O-])OCC(CO[N+](=O)[O-])O[N+](=O)[O-] [NTG, 1,2,3-propanetriol trinitrate]",Effect on NMDA-evoked [Ca2+]i response,persistently decreased the NMDA-evoked [Ca^2+ ]i response
